Results: patent US6358885B1, “Substituted phenylheterocyclic herbicides” (Mississippi State University, priority 1992, dated 2002)

Legend:
[1] = test system: wheat; test: Test B preemergence/postemergence greenhouse plant response rating 0 to 10; format: in vivo, Triticum aestivum; details: 0 to 10 scale
In short: (§1)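 Test chemicals, dissolved in a non-phytotoxic solvent, were applied to soil at planting and, at the same time, over foliage of seedlings at the one to four leaf stage.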

[2] = test system: lambsquarters; test: as above; format: in vivo, Chenopodium album; details: 0 to 10 scale
In short: as §1

[3] = test system: cheatgrass; test: as above; format: in vivo, Bromus secalinus; details: for Plant response rating, Cheatgrass: 0 to 10 scale
In short: as §1

[4] = test system: cotton; test: as above; format: in vivo, Gossypium hirsutum; details: for Plant response rating, Cotton: 0 to 10 scale
In short: as §1

[5] = test system: corn; test: as above; format: in vivo, Zea mays; details: for Plant response rating, Corn: 0 to 10 scale
In short: as §1

[6] = test system: wild oat; test: as above; format: in vivo, Avena fatua; details: 0 to 10 scale
In short: as §1

[7] = test system: rice; test: as above; format: in vivo, Oryza sativa; details: 0 to 10 scale
In short: as §1

[8] = test system: sorghum; test: Test C preemergence/postemergence greenhouse plant response rating 0 to 100; format: in vivo, Sorghum bicolor; details: PREEMERGENCE
Text: (§2) The compounds evaluated in this test were formulated in a non-phytoxic solvent and applied to the soil surface before plant seedlings emerged (preemergence application), to water that covered the soil surface (flood application), and to plants that were in the one-to-four leaf stage (postemergence application). A sandy loam soil was used for the preemergence and postemergence tests, while a silt loam soil was used in the flood test. Water depth was approximately 2.5 cm for the flood test and was maintained at this level for the duration of the test. Plant species in the preemergence and postemergence tests consisted of barley (Hordeum vulgare), bedstraw (Galium aparine), blackgrass (Alopecurus myosuroides), chickweed (Stellaria media), corn (Zea mays), cotton (Gossypium hirsutum), crabgrass (Digitaria sanguinalis), downy brome (Bromus tectorum), giant foxtail (Setaria faberii), lambsquarters (Chenopodium album), morningglory (Ipomoea hederacea), pigweed ([…]), rape (Brassica napus), ryegrass (Lolium multiflorum), sorghum (Sorghum bicolor), soybean (Glycine max), speedwell (Veronica persica), sugar beet (Beta vulgaris), velvetleaf (Abutilon theophrasti), wheat (Triticum aestivum), wild buckwheat (Polygonum convolvulus), and wild oat (Avena fatua). All plant species were planted one day before application of the compound for the preemergence portion-of this test. Plantings of these species were adjusted to produce plants of appropriate size for the post-emergence portion of the test. […] All plant species were grown using normal greenhouse practices. Visual evaluations of injury expressed on treated plants, when compared to untreated controls, were recorded approximately fourteen to twenty one days after application of the test compound. […] A dash (-) response means no test result.

[9] = test system: bedstraw; test: as above; format: in vivo, Galium aparine; details: PREEMERGENCE; for Plant response rating, Bedstraw: 0 to 100 scale
Text: as §2

[10] = test system: downy brome; test: as above; format: in vivo, Bromus tectorum; details: PREEMERGENCE; for Plant response rating Downy Brome: 0 to 100 scale
Text: as §2

[11] = test system: sugar beet; test: as above; format: in vivo, Beta vulgaris; details: PREEMERGENCE
Text: as §2

[12] = test system: velvetleaf; test: as above; format: in vivo, Abutilon theophrasti; details: PREEMERGENCE
Text: as §2

[13] = test system: lambsquarters; test: as above; format: in vivo, Chenopodium album; details: PREEMERGENCE; for Plant response rating Lambsquarters: 0 to 100 scale
Text: as §2

[14] = test system: cotton; test: as above; format: in vivo, Gossypium hirsutum; details: PREEMERGENCE; for Plant response rating, Cotton: 0 to 100 scale
Text: as §2

[15] = test system: crabgrass; test: as above; format: in vivo, Digitaria sanguinalis; details: PREEMERGENCE; for Plant response rating, Crabgrass: 0 to 100 scale
Text: as §2

[16] = test system: giant foxtail; test: as above; format: in vivo, Setaria faberii; details: PREEMERGENCE; for Plant response rating, Giant foxtail: 0 to 100 scale
Text: as §2

## CC(C)Oc1cc(-c2nn3c(c2Cl)CCCC3)c(F)cc1Cl [Compound 21]
[1]; POSTEMERGENCE, Rate 50 g/ha
  Plant response rating, Wheat: 3
[1]; POSTEMERGENCE, Rate 200 g/ha
  Plant response rating, Wheat: 8
[1]; PREEMERGENCE, Rate 50 g/ha
  Plant response rating, Wheat: 3
[1]; Rate 200 g/ha, PREEMERGENCE
  Plant response rating, Wheat: 2
[2]; POSTEMERGENCE, Rate 50 g/ha
  Plant response rating, Lambsquarter: 10
[2]; POSTEMERGENCE, Rate 200 g/ha
  Plant response rating, Lambsquarter: 10
[2]; PREEMERGENCE, Rate 50 g/ha
  Plant response rating, Lambsquarter: 10
[2]; Rate 200 g/ha, PREEMERGENCE
  Plant response rating, Lambsquarter: 10
[3]; POSTEMERGENCE, Rate 50 g/ha
  Plant response rating (0 to 10 scale), Cheatgrass: 5
[3]; POSTEMERGENCE, Rate 200 g/ha
  Plant response rating, Cheatgrass: 8
[3]; PREEMERGENCE, Rate 50 g/ha
  Plant response rating, Cheatgrass: 4
[3]; Rate 200 g/ha, PREEMERGENCE
  Plant response rating, Cheatgrass: 6
[4]; POSTEMERGENCE, Rate 50 g/ha
  Plant response rating (0 to 10 scale), Cotton: 10
[4]; POSTEMERGENCE, Rate 200 g/ha
  Plant response rating, Cotton: 10
[4]; PREEMERGENCE, Rate 50 g/ha
  Plant response rating, Cotton: 2
[4]; Rate 200 g/ha, PREEMERGENCE
  Plant response rating, Cotton: 7
[5]; POSTEMERGENCE, Rate 50 g/ha
  Plant response rating (0 to 10 scale), Corn: 5
[5]; POSTEMERGENCE, Rate 200 g/ha
  Plant response rating, Corn: 6
[5]; PREEMERGENCE, Rate 50 g/ha
  Plant response rating, Corn: 0
[5]; Rate 200 g/ha, PREEMERGENCE
  Plant response rating, Corn: 1
[6]; POSTEMERGENCE, Rate 50 g/ha
  Plant response rating, Wild oat: 4
[6]; POSTEMERGENCE, Rate 200 g/ha
  Plant response rating, Wild oat: 6
[6]; Rate 200 g/ha, PREEMERGENCE
  Plant response rating, Wild oat: 6
[7]; POSTEMERGENCE, Rate 50 g/ha
  Plant response rating, Rice: 5
[7]; POSTEMERGENCE, Rate 200 g/ha
  Plant response rating, Rice: 6
[7]; PREEMERGENCE, Rate 50 g/ha
  Plant response rating, Rice: 0
[7]; Rate 200 g/ha, PREEMERGENCE
  Plant response rating, Rice: 2

## CCCN1C(=O)COc2cc(F)c(-c3nn4c(c3Br)CCCC4)cc21 [Compound 63]
[1]; POSTEMERGENCE, Rate 10 g/ha
  Plant response rating, Wheat: 4
[1]; POSTEMERGENCE, Rate 50 g/ha
  Plant response rating, Wheat: 5
[1]; PREEMERGENCE, Rate 50 g/ha
  Plant response rating, Wheat: 2
[8]; 250 g/ha, 0 to 100 scale
  Plant response rating, Sorghum: 20
[8]; Rate 4 g/ha
  Plant response rating (0 to 100), Sorghum: 0
[8]; Rate 16 g/ha
  Plant response rating (0 to 100), Sorghum: 0
[9]; 62 g/ha
  Plant response rating, Bedstraw: 100
[9]; 250 g/ha
  Plant response rating, Bedstraw: 100
[9]; Rate 4 g/ha
  Plant response rating (0 to 100), Bedstraw: 0
[9]; Rate 16 g/ha
  Plant response rating (0 to 100), Bedstraw: 10
[2]; POSTEMERGENCE, Rate 10 g/ha
  Plant response rating, Lambsquarter: 9
[2]; POSTEMERGENCE, Rate 50 g/ha
  Plant response rating, Lambsquarter: 10
[2]; PREEMERGENCE, Rate 50 g/ha
  Plant response rating, Lambsquarter: 10
[3]; POSTEMERGENCE, Rate 10 g/ha
  Plant response rating, Cheatgrass: 4
[3]; POSTEMERGENCE, Rate 50 g/ha
  Plant response rating, Cheatgrass: 4
[3]; PREEMERGENCE, Rate 10 g/ha
  Plant response rating, Cheatgrass: 2
[3]; PREEMERGENCE, Rate 50 g/ha
  Plant response rating, Cheatgrass: 2
[10]; 62 g/ha
  Plant response rating Downy Brome: 20
[10]; 250 g/ha
  Plant response rating Downy Brome: 50
[10]; Rate 4 g/ha
  Plant response rating (0 to 100), Downy Brome: 0
[10]; Rate 16 g/ha
  Plant response rating (0 to 100), Downy Brome: 0
[11]; 250 g/ha, 0 to 100 scale
  Plant response rating, Sugar beet: 100
[11]; Rate 4 g/ha
  Plant response rating (0 to 100), Sugar beet: 10
[11]; Rate 16 g/ha
  Plant response rating (0 to 100), Sugar beet: 100
[12]; 250 g/ha, 0 to 100 scale
  Plant response rating, Velvetleaf: 100
[12]; Rate 4 g/ha
  Plant response rating (0 to 100), Velvetleaf: 0
[12]; Rate 16 g/ha
  Plant response rating (0 to 100), Velvetleaf: 20
[4]; POSTEMERGENCE, Rate 10 g/ha
  Plant response rating, Cotton: 9
[4]; POSTEMERGENCE, Rate 50 g/ha
  Plant response rating, Cotton: 10
[4]; PREEMERGENCE, Rate 10 g/ha
  Plant response rating, Cotton: 0
[4]; PREEMERGENCE, Rate 50 g/ha
  Plant response rating, Cotton: 2
[13]; 62 g/ha
  Plant response rating Lambsquarters: 95
[13]; 250 g/ha
  Plant response rating Lambsquarters: 100
[13]; Rate 4 g/ha
  Plant response rating (0 to 100), Lambsquarters: 10
[13]; Rate 16 g/ha
  Plant response rating (0 to 100), Lambsquarters: 20
[5]; POSTEMERGENCE, Rate 10 g/ha
  Plant response rating, Corn: 2
[5]; POSTEMERGENCE, Rate 50 g/ha
  Plant response rating, Corn: 2
[5]; PREEMERGENCE, Rate 50 g/ha
  Plant response rating, Corn: 0
[14]; 62 g/ha
  Plant response rating, Cotton: 20
[14]; 250 g/ha
  Plant response rating, Cotton: 70
[14]; Rate 4 g/ha
  Plant response rating (0 to 100), Cotton: 0
[14]; Rate 16 g/ha
  Plant response rating (0 to 100), Cotton: 0
[6]; POSTEMERGENCE, Rate 10 g/ha
  Plant response rating, Wild oat: 4
[6]; POSTEMERGENCE, Rate 50 g/ha
  Plant response rating, Wild oat: 6
[6]; PREEMERGENCE, Rate 50 g/ha
  Plant response rating, Wild oat: 3
[15]; 62 g/ha
  Plant response rating, Crabgrass: 0
[15]; 250 g/ha
  Plant response rating, Crabgrass: 70
[15]; Rate 4 g/ha
  Plant response rating (0 to 100), Crabgrass: 0
[15]; Rate 16 g/ha
  Plant response rating (0 to 100), Crabgrass: 0
[7]; POSTEMERGENCE, Rate 10 g/ha
  Plant response rating, Rice: 3
[7]; POSTEMERGENCE, Rate 50 g/ha
  Plant response rating, Rice: 5
[7]; PREEMERGENCE, Rate 50 g/ha
  Plant response rating, Rice: 0
[16]; 62 g/ha
  Plant response rating, Giant foxtail: 20
[16]; 250 g/ha
  Plant response rating, Giant foxtail: 75
[16]; Rate 4 g/ha
  Plant response rating (0 to 100), Giant foxtail: 0
[16]; Rate 16 g/ha
  Plant response rating (0 to 100), Giant foxtail: 0
